Legend:
Assay in all cases: relative viability (nuclei count vs DMSO), 5 days (fraction); higher = more cells survive
Tosedostat + Bortezomib = compound: CC(C)C[C@@H](C(=O)N[C@H](C(=O)OC1CCCC1)c1ccccc1)[C@H](O)C(=O)NO [Tosedostat] + CC(C)C[C@H](NC(=O)[C@H](Cc1ccccc1)NC(=O)c1cnccn1)B(O)O [Bortezomib] (partner 0.002 µM)
Summary of the method: (§1)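 For relative viability, nuclei counts in treated wells were divided by those in vehicle wells. Lung cancer cell lines had been pin-tool dosed in 1536-well plates the day after seeding and cultured for 5 days, then fixed and stained in one step (final 0.05% Triton X-100, 1% formaldehyde, 1 ug/ml Hoechst) and imaged at 4×. Doses were one drug alone or a fixed anchor-drug dose plus five library-drug doses (not always all listed) in √10 steps, and values are duplicate-plate medians.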

Tosedostat + Dasatinib = compound: CC(C)C[C@@H](C(=O)N[C@H](C(=O)OC1CCCC1)c1ccccc1)[C@H](O)C(=O)NO [Tosedostat] + Cc1nc(Nc2ncc(C(=O)Nc3c(C)cccc3Cl)s2)cc(N2CCN(CCO)CC2)n1 [Dasatinib] (partner 0.075 µM)
Summary of the method: as §1

[1] = compound: CC1=NN=C(O1)C2=NN=C(C=C2)N3CCC(CC3)OC4=C(C=CC(=C4)F)Cl + CC(=O)Nc1cccc(-n2c(=O)n(C3CC3)c(=O)c3c(Nc4ccc(I)cc4F)n(C)c(=O)c(C)c32)c1 [Trametinib] (partner 0.02 µM)
Summary of the method: as §1

[2] = compound: CC1=NN=C(O1)C2=NN=C(C=C2)N3CCC(CC3)OC4=C(C=CC(=C4)F)Cl + COc1cc2c(Oc3ccc(NC(=O)C4(C(=O)Nc5ccc(F)cc5)CC4)cc3F)ccnc2cc1OCCCN1CCOCC1 [Foretinib] (partner 0.25 µM)
Summary of the method: as §1

| Cell Line | relative viability (Tosedostat + Bortezomib; first compound 0.02 µM) | relative viability (Tosedostat + Bortezomib; first compound 0.06325 µM) | relative viability (Tosedostat + Bortezomib; first compound 0.2 µM) | relative viability (Tosedostat + Bortezomib; first compound 0.6325 µM) | relative viability (Tosedostat + Bortezomib; first compound 2 µM) | relative viability (Tosedostat + Dasatinib; first compound 0.02 µM) | relative viability (Tosedostat + Dasatinib; first compound 0.06325 µM) | relative viability (Tosedostat + Dasatinib; first compound 0.2 µM) | relative viability (Tosedostat + Dasatinib; first compound 0.6325 µM) | relative viability (Tosedostat + Dasatinib; first compound 2 µM) | relative viability ([1]; first compound 0.253 µM) | relative viability ([1]; first compound 0.8 µM) | relative viability ([1]; first compound 2.53 µM) | relative viability ([1]; first compound 8 µM) | relative viability ([2]; first compound 0.253 µM) | relative viability ([2]; first compound 0.8 µM) | relative viability ([2]; first compound 2.53 µM) | relative viability ([2]; first compound 8 µM) |
| --- | --- | --- | --- | --- | --- | --- | --- | --- | --- | --- | --- | --- | --- | --- | --- | --- | --- | --- |
| HCC-78 | 0.496 | 0.497 | 0.473 | 0.555 | 0.563 | 0.317 | 0.439 | 0.37 | 0.374 | 0.493 | 0.338 | 0.396 | 0.433 | 0.365 | 0.465 | 0.51 | 0.467 | 0.516 |
| IA-LM | 0.854 | 0.731 | 0.814 | 0.848 | 0.735 |  |  |  |  |  |  |  |  |  | 0.164 | 0.158 | 0.171 | 0.167 |
| NCI-H647 | 1.03 | 0.947 | 0.788 | 1.07 | 0.829 | 0.212 | 0.211 | 0.218 | 0.197 | 0.151 | 0.287 | 0.5 | 0.45 | 0.297 | 0.565 | 0.623 | 0.586 | 0.426 |
| NCI-H520 | 0.348 | 0.519 | 0.508 | 0.449 | 0.76 | 0.146 | 0.202 |  | 0.243 | 0.28 | 0.656 | 0.578 | 0.648 | 0.475 | 0.653 |  | 0.757 | 0.77 |
| NCI-H1355 | 1.2 | 1.14 | 1.09 | 0.987 | 1.07 | 0.758 | 0.681 | 0.728 | 0.592 | 0.57 | 0.317 | 0.379 | 0.374 | 0.371 | 0.723 | 0.802 | 0.895 | 0.845 |
| COR-L23 | 1.22 | 0.918 | 0.914 | 0.969 | 1.1 | 0.546 | 0.469 | 0.495 | 0.381 | 0.332 | 0.498 | 0.396 | 0.529 | 0.444 | 0.901 | 0.836 | 0.869 | 0.672 |
| NCI-H2347 | 1.25 | 1.36 | 1.35 | 1.05 | 0.694 | 0.269 | 0.353 | 0.291 | 0.311 | 0.26 | 0.234 | 0.288 | 0.256 | 0.246 | 0.904 | 0.931 | 0.707 | 0.824 |
| LC-2-ad | 1.15 | 0.971 | 1.01 | 0.906 | 0.791 | 0.865 | 0.51 | 0.675 | 0.602 | 0.337 | 0.369 | 0.35 | 0.349 | 0.328 | 0.66 | 0.634 | 0.623 | 0.507 |
| NCI-H2023 | 0.961 | 0.965 | 0.888 | 0.649 | 0.817 | 0.585 | 0.571 | 0.552 | 0.518 | 0.505 | 0.36 | 0.419 | 0.388 | 0.301 | 0.594 | 0.613 | 0.64 | 0.619 |

From the supplement of paper PMC10307832
